Measured values taken from patent US20070254891A1, “Crystalline forms of 4-(2-fluorophenyl)-6-methyl-2-(piperazin-1-yl)thieno[2,3-d]pyrimidine” (Dynogen Pharmaceuticals, Inc., priority 2006, published 2007).

How the values were obtained:
[1] = system: acetic acid-induced colonic hypersensitivity; test: Visceromotor response to colorectal distension in acetic acid-sensitized rats
Protocol: The visceromotor behavioral response to colorectal distension was measured by counting the number of abdominal contractions recorded by a strain gauge sutured onto the abdominal musculature as described in Gunter et al., Physiol. […] A 5 cm latex balloon catheter inserted via the anal canal into the colon was used for colorectal distensions. Constant pressure tonic distensions were performed in a graded manner (15, 30 or 60 mmHg) and were maintained for a period of 10 min and the numbers of abdominal muscle contractions were recorded to measure the level of colonic sensation. A 10 min recovery was allowed between distensions.
J. Physiol. […] In the present study, a low concentration of acetic acid (1.5 ml, 0.6%) was administered intracolonically to sensitize the colon without causing histological damage to the colonic mucosa as described in previous studies (Gunter et al., supra).
Injection volume was 0.2 mL using 100% propylene glycol as the vehicle. Three consecutive colorectal distensions at 15, 30 or 60 mmHg applied at 10-min intervals were recorded. Visceromotor responses were evaluated as the number of abdominal muscle contractions recorded during the 10-min periods of colorectal distension.
Adult male rats were used in the study. […] Specifically, rats were anesthetized with Isoflurane (2%) and were instrumented with a strain gauge force transducer for recording of abdominal muscle contractions. A latex balloon and catheter were inserted 11 cm into the colon. The animals were allowed a 30-min period to completely recover from the anesthesia and were then subjected to intracolonic infusion of acetic acid (1.5 mL, 0.6%). An additional 30-min period was allowed for sensitization of the colon. […] The protocol for colorectal distension was initiated 30-min post drug administration. After a basal reading of the number of abdominal contractions with the balloon inserted but not distended, three consecutive 10-min lasting colorectal distensions at 15, 30, and 60 mmHg were applied at 10-min intervals. Colorectal sensitivity was evaluated by counting the number of reflex abdominal contractions (i.e. the visceromotor response) observed within each distension period.
The visceromotor behavioral response to colorectal distension was measured by counting the number of abdominal contractions recorded by a strain gauge sutured onto the abdominal musculature as previously described Gunter et al., referenced above. Colorectal distensions were carried out utilizing a 5 cm latex balloon catheter inserted into the colon via the anal canal. Constant pressure tonic distensions were performed in a graded manner, i.e., the pressure was increased to the desired level of 15, 30, or 60 mmHg and then maintained for a period of 10 minutes during which the number of abdominal contractions were recorded to measure the level of colonic sensation. Ten minute recovery periods were allowed following each distension.

[2] = system: stress-induced accelerated colonic transit; test: Water avoidance stress (WAS) model of increased colonic transit, fecal pellet output; format: in vivo, rat
Text: At the end of the 1-hour stress period, the fecal pellets were counted and recorded. WAS causes an acceleration of colonic transit, which can be quantified by counting the number of fecal pellets, produced during the stress procedure. Rats were placed for 1-hour into a stress chamber onto a raised platform 7.5 cm×7.5 cm×9 cm (L×W×H) in the center of a stress chamber filled with room temperature water 8 cm in depth. The stress chamber was constructed from a rectangular plastic tub (40.2×60.2×31.2 cm). […] Ondansetron was supplied from APIN Chemicals LTD. […] MCI-225 was provided by Mitsubishi Pharma Corp. All drugs were dissolved in a vehicle of 100% propylene glycol (1,2-propanediol) by sonicating for a period of 10 minutes. Propylene glycol was obtained from Sigma Chemical Co. […] All drugs and the vehicle were administered as an i.p. injection in a volume of 0.2 mL.

small intestinal transit = test: Small Intestinal Transit Rodent Model (charcoal meal); format: in vivo, rat; conditions: for Small intestinal transit, Mean (% of total length): 15 min test period
Protocol: Following an overnight fast, rats were brought to the laboratory in their home cages and received an i.p. injection of one of the following: […] Control rats received no treatment. The treated rats were placed back in the home cages and after 30 min, were fed a 2 mL charcoal meal via an oral gavage. Small intestinal transit was measured following 15 min test-period. Each rat was placed briefly in a glass chamber with IsoFlo for anesthesia and sacrificed. The stomach and the small intestine were removed and the total length of the small intestine was measured. Transit was then measured as the distance that the charcoal meal had traveled along the small intestine and expressed as % of the total length. Animals were randomly assigned to experimental groups and experiments were performed as illustrated in Table 11. Small intestinal transit in rats was investigated by the passage of a charcoal meal along the small intestine during a defined time period (15-min). The animals were deprived of food for 12-16 hrs prior to the experiments. Rats were given a charcoal meal (a mixture of charcoal, gum arabic, and distilled water) as a 2 mL oral gavage and were sacrificed after a 15-min test period. The distance traveled by the charcoal meal was quantified as a percent of the small intestinal length, using the following equation: Transit (%)=cm traveled by meal/cm total small intestinal length×100 […]

[3] = system: retching and vomiting induced by cisplatin; test: Cisplatin-induced emesis in the ferret; format: in vivo, ferret (Mustela putorius furo)
Protocol: Following administration of the cisplatin and either MCI-225, ondansetron or vehicle alone, the occurrence of retching and vomiting was monitored for a period of 6 hours. […] Vomiting was defined as the forceful oral expulsion of upper gastrointestinal contents. The latency of the retching or vomiting response and the number of episodes were recorded for each animal and summarized for each experimental group (Wright et al., Infect. […] Following one hour of acclimation to the observation cage, ferrets received an intraperitoneal (i.p.) injection of cisplatin (5 mg/kg in 5 mL) followed in about 2 minutes by i.p. injection of a single dose of MCI-225 or ondansetron (Rudd and Naylor, Eur. J. Pharmacol., 322: 79-82 (1997)). […] Each animal received a single-dose drug treatment. In addition, three animals received an initial dose (30 mg/kg i.p.) and a second MCI-225 injection (30 mg/kg i.p.) 180 minutes following the initial dose. […] All groups were randomized.

## CNCCC(Oc1ccccc1OC)c1ccccc1 (stereo not drawn) [Nisoxetine]
[1]; 30 mg/kg i.p.
  Behavior in the home cage during the experiments: increased exploratory behavior
[1]; 3, 10 or 30 mg/kg i.p.
  Visceromotor response to colorectal distension: no significant effect
[2]; 3, 10 or 30 mg/kg i.p.
  WAS-induced fecal pellet output during 1 hour: reduced by all doses
[2]; 10 and 30 mg/kg i.p.
  Fecal pellets produced during WAS compared to the vehicle treated group: significantly fewer
Small intestinal transit; 3 mg/kg i.p.
  Small intestinal transit, Mean (% of total length): 40.3%
Small intestinal transit; 10 mg/kg i.p.
  Small intestinal transit, Mean (% of total length): 38.6%
Small intestinal transit; 30 mg/kg i.p.
  Charcoal meal completely retained in the stomach: 4 out of 5
  Effect on small intestinal transit: almost completely inhibited the transit
  Small intestinal transit, Mean (% of total length): 4.7%
Small intestinal transit; 3 or 10 mg/kg i.p.
  Effect on small intestinal transit: tendency to decrease

## Cc1nccn1CC1CCc2c(c3ccccc3n2C)C1=O (stereo not drawn) [Ondansetron, reference compound]
[1]; 10 mg/kg i.p.
  Responses to moderate (30 mmHg) and high (60 mmHg) intraluminal pressure: did not abolish the responses
[1]; 1, 5 or 10 mg/kg i.p.
  Behavioral activity of the rats: No significant changes
[1]; 1, 5 or 10 mg/kg i.p., 15, 30, 60 mmHg
  Number of abdominal contractions (visceromotor response): dose-dependent decrease
[2]; 1, 5 and 10 mg/kg i.p.
  Stress-induced fecal pellet output during 1 hour of WAS: dose-dependent inhibition
[3]; 5 mg/kg and 10 mg/kg i.p.
  Number of emetic events induced by cisplatin: dose-dependently reduced
[3]; 5 mg/kg i.p.
  Latency: 288 ± 4 min
  Retches (360 min): 11.2 ± 7.0
  Total Events: 11.5 ± 7.2
  Vomits (360 min): 0.3 ± 0.2
[3]; 10 mg/kg i.p.
  Latency: 313 ± 32 min
  Retches (360 min): 2.4 ± 1.6
  Total Events: 2.4 ± 1.6
  Vomits (360 min): 0.0 ± 0.0
Small intestinal transit; 1 mg/kg i.p.
  Small intestinal transit, Mean (% of total length): 27.6%
Small intestinal transit; 5 mg/kg i.p.
  Small intestinal transit, Mean (% of total length): 32.1%
Small intestinal transit; 10 mg/kg i.p.
  Small intestinal transit, Mean (% of total length): 18.4%
Small intestinal transit; 1, 5 or 10 mg/kg i.p.
  Effect on small intestinal transit: significant reduction
